Source: US20240148821A1, “PHARMACEUTICAL USE OF CYCLIC PEPTIDE COMPOUND” (CHUGAI SEIYAKU KABUSHIKI KAISHA, priority 2021, published 2024)
Numbered stars: 1 amine (or outer) side, 2 acyl side, 3 side chain; on linkers, the order of the positions; unused ones are H or OH. Bridge positions count the residues as written; N and C are the ends. Square brackets hold non-standard residues; d marks the D form. Peptide text beside a SMILES is read from it. * marks the point of attachment. hPhe(3,5-F2-4-CF3) = N[C@@H](CCc1cc(F)c(C(F)(F)F)c(F)c1)C(=O)O; hPhe(3-Cl-4-CF3) = N[C@@H](CCc1ccc(C(F)(F)F)c(Cl)c1)C(=O)O; hPhe(3-F,4-CF3) = N[C@@H](CCc1ccc(C(F)(F)F)c(F)c1)C(=O)O; NMePhe(4-Cl) = CN[C@@H](Cc1ccc(Cl)cc1)C(=O)O; NMePhe(4-Me) = CN[C@@H](Cc1ccc(C)cc1)C(=O)O; NMedβ3hAla = C[C@H](CC(=O)[*:2])N(C)[*:1]; Phe(3-I) = N[C@@H](Cc1cccc(I)c1)C(=O)O; NMeCha = CN[C@@H](CC1CCCCC1)C(=O)O; NMeGly(cPr) = CN[C@H](C(=O)O)C1CC1; NMehLeu = CN[C@@H](CCC(C)C)C(=O)O; NMeChg = CN[C@H](C(=O)O)C1CCCCC1; NMeI = CC[C@H](C)[C@H](NC)C(=O)O; NMeD = CN[C@@H](CC(=O)O)C(=O)O; NMeL = CN[C@@H](CC(C)C)C(=O)O; NMeV = CN[C@H](C(=O)O)C(C)C; NMeS = CN[C@@H](CO)C(=O)O; hSer = N[C@@H](CCO)C(=O)O; NMeA = CN[C@@H](C)C(=O)O; NMeAib = CNC(C)(C)C(=O)O; Nle = CCCC[C@H](N)C(=O)O; Piperidide = C1CCN(*)CC1; Ac5c = NC1(C(=O)O)CCCC1; Aze = O=C(O)[C@@H]1CCN1; Isopentyl = CC(C)CC*; Sar = CNCC(=O)O

Key:
[1] = tested on: Human pancreatic cancer cell line AsPC-1 (G12D mutation Kras); test: AsPC-1 cell growth inhibition (AsPC-1 CGI); format: cell-based; conditions: read-out: AsPC-1 cell growth inhibition, 50% growth inhibitory concentration (IC50 value); 96 hours, CellTiter-Glo, values classified in ranges
[2] = molecular target: protein-protein interaction between Kras and SOS1 (biotin-tagged human Kras loaded with GDP, His-tagged human SOS1) (Homo sapiens (Human), UniProt P01116, G12D); test: Protein-protein interaction inhibition between Kras and SOS1 (KrasG12D-SOS PPI) using AlphaScreen; format: biochemical; conditions: AlphaScreen; biotin-tagged human Kras loaded with GDP, His-tagged human SOS1; read-out: KRAS G12D-SOS PPI IC50;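 further: kras produced in E. coli, Ni-coupled donor beads and streptavidin acceptor beads, excitation 680 nm with emission detected at 520–620 nm via singlet oxygen transfer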

| SMILES | IC50 [1] [nM] | IC50 [2] [nM] |
| --- | --- | --- |
| CCCC[C@@H]1NC(=O)[C@H](Cc2cccc(I)c2)NC(=O)CN(C)C(=O)[C@H](Cc2ccc(C)cc2)N(C)C(=O)[C@@H]2CCN2C(=O)[C@H](C)N(C)C(=O)[C@H]([C@@H](C)CC)NC(=O)[C@H](CC(C)C)N(C)C(=O)C[C@@H](C(=O)N2CCCCC2)N(C)C(=O)[C@H](CC(C)C)NC(=O)[C@H]2CCCN2C1=O [Compound 822] ([NMeL]I[NMeA][Aze][NMePhe(4-Me)][Sar][Phe(3-I)][Nle][dP]L[NMeD]-Piperidide; lactam N-11) | > 500 | 150 |
| CC[C@H](C)[C@@H]1NC(=O)[C@H](CC(C)C)N(C)C(=O)C[C@@H](C(=O)N2CCCCC2)N(C)C(=O)[C@H](C2CC2)N(C)C(=O)C2(CCCC2)NC(=O)[C@@H]2CCCN2C(=O)[C@H](CCc2ccc(C(F)(F)F)c(Cl)c2)NC(=O)CN(C)C(=O)[C@H](CC2CCCCC2)N(C)C(=O)[C@@H]2CCN2C(=O)[C@H](C)N(C)C1=O [Compound 1822] ([NMeL]I[NMeA][Aze][NMeCha][Sar][hPhe(3-Cl-4-CF3)]P[Ac5c][NMeGly(cPr)][NMeD]-Piperidide; lactam N-11) | > 500 | 50 |
| CC[C@H](C)[C@@H]1NC(=O)[C@H](CCC(C)C)N(C)C(=O)C[C@@H](C(=O)N(C)C)N(C)C(=O)[C@H]([C@@H](C)CC)N(C)C(=O)C2(CCCC2)NC(=O)[C@@H]2CCCN2C(=O)[C@H](CCc2ccc(C(F)(F)F)c(Cl)c2)NC(=O)CN(C)C(=O)[C@H](Cc2ccc(C)cc2)N(C)C(=O)[C@@H]2CCN2C(=O)[C@H](C)NC1=O [Compound 308] ([NMehLeu]IA[Aze][NMePhe(4-Me)][Sar][hPhe(3-Cl-4-CF3)]P[Ac5c][NMeI][NMeD]-NMe2; lactam N-11) | ≤ 20 | 0.93 |
| COCC[C@@H]1NC(=O)[C@H](CC(C)C)N(C)C(=O)C[C@@H](C(=O)N2CCCCC2)N(C)C(=O)[C@H](C(C)C)N(C)C(=O)C2(CCCC2)NC(=O)[C@@H]2CCCN2C(=O)[C@H](CCc2ccc(C(F)(F)F)c(Cl)c2)NC(=O)CN(C)C(=O)[C@H](CC2CCCCC2)N(C)C(=O)[C@@H]2CCN2C(=O)[C@H](C)N(C)C1=O [Compound 17] ([NMeL][hSer](Me)[NMeA][Aze][NMeCha][Sar][hPhe(3-Cl-4-CF3)]P[Ac5c][NMeV][NMeD]-Piperidide; lactam N-11) | > 500 | 30 |
| CCCC[C@@H]1NC(=O)[C@H](CCc2ccc(C(F)(F)F)c(F)c2)NC(=O)CN(C)C(=O)[C@H](Cc2ccc(Cl)cc2)N(C)C(=O)CN(C)C(=O)CN(C)C(=O)[C@H]([C@@H](C)CC)NC(=O)[C@H](CC(C)C)N(C)C(=O)C[C@@H](C)N(C)C(=O)[C@H](CC(C)C)NC(=O)C(C)(C)N(C)C1=O [Compound 165] (cyclo(I[Sar][Sar][NMePhe(4-Cl)][Sar][hPhe(3-F,4-CF3)][Nle][NMeAib]L[NMedβ3hAla][NMeL])) | > 500 | 41 |
| CC[C@H](C)[C@@H]1NC(=O)[C@H](C)N(C)C(=O)C[C@@H](C(=O)N2CCCCC2)N(C)C(=O)[C@H](C(C)C)N(C)C(=O)C2(CCCC2)NC(=O)[C@H](Cc2ccccc2)NC(=O)[C@H](CCc2ccc(C(F)(F)F)c(Cl)c2)NC(=O)CN(C)C(=O)[C@H](CC2CCCCC2)N(C)C(=O)CN(C)C(=O)CN(C)C1=O [Compound 1125] ([NMeA]I[Sar][Sar][NMeCha][Sar][hPhe(3-Cl-4-CF3)]F[Ac5c][NMeV][NMeD]-Piperidide; lactam N-11) | > 500 | 2.5 |
| CC[C@H](C)[C@@H]1NC(=O)[C@H](CC(C)C)N(C)C(=O)C[C@@H](C(=O)N2CCCCC2)N(C)C(=O)[C@H](C2CCCCC2)N(C)C(=O)C2(CCCC2)NC(=O)[C@H](COCCC(C)C)N(C)C(=O)[C@H](CCc2ccc(C(F)(F)F)c(Cl)c2)NC(=O)CN(C)C(=O)[C@H](CC2CCCCC2)N(C)C(=O)CN(C)C(=O)CN(C)C1=O [Compound 940] ([NMeL]I[Sar][Sar][NMeCha][Sar][hPhe(3-Cl-4-CF3)][NMeS](Isopentyl)[Ac5c][NMeChg][NMeD]-Piperidide; lactam N-11) | > 500 | 150 |
| CC[C@H](C)[C@@H]1NC(=O)[C@H](CC(C)C)N(C)C(=O)C[C@@H](C(=O)N(C)C)N(C)C(=O)[C@H]([C@@H](C)CC)N(C)C(=O)C2(CCCC2)NC(=O)[C@@H]2CCCN2C(=O)[C@H](CCc2cc(F)c(C(F)(F)F)c(F)c2)NC(=O)CN(C)C(=O)[C@H](Cc2ccc(C)cc2)N(C)C(=O)[C@@H]2CCN2C(=O)[C@H](C)N(C)C1=O [Compound 1080] ([NMeL]I[NMeA][Aze][NMePhe(4-Me)][Sar][hPhe(3,5-F2-4-CF3)]P[Ac5c][NMeI][NMeD]-NMe2; lactam N-11) | ≤ 20 | 1 |
| CC[C@H](C)[C@@H]1NC(=O)[C@H](CC(C)C)N(C)C(=O)C[C@@H](C(=O)N2CCCCC2)N(C)C(=O)[C@H]([C@@H](C)CC)N(C)C(=O)C2(CCCC2)NC(=O)[C@@H]2CCCN2C(=O)[C@H](CCc2ccc(C(F)(F)F)c(Cl)c2)NC(=O)CN(C)C(=O)[C@H](Cc2ccc(Cl)cc2)N(C)C(=O)[C@@H]2CCN2C(=O)[C@H](C)N(C)C1=O [Compound 253] ([NMeL]I[NMeA][Aze][NMePhe(4-Cl)][Sar][hPhe(3-Cl-4-CF3)]P[Ac5c][NMeI][NMeD]-Piperidide; lactam N-11) | ≤ 20 | 0.99 |
